From patent US20240010726A1, “LFA-1 SIGNALLING MEDIATOR FOR USE IN CANCER THERAPY” (Universität Basel, priority 2020, published 2024)

What was measured:
Ramos target cells = assay: Co-culture assay with Blinatumomab, caspase-3 activity in Ramos target cells; type: cell-based, human; details: PHA-blasts, 3.5 h co-culture; reported therapeutic range 230-620 pg ml^−1; varying Mg^2+
Method: FIG. 3: Magnesium regulates LFA-1 mediated T cell activation and cytotoxicity as well BiTE- and CAR T-cell functionality. (a) Glycolytic switch of murine WT and LFA-1^−/− CTLs upon injection of anti-CD3/28 Ab in medium containing 1.2 mM Mg^2+ and 0 mM Mg^2+, presented as quantification of summarized data with n=4 mice. (b) Calcium flux in WT and LFA-1^−/− Jurkat T cells stimulated with anti-CD3 Ab in 1.2 mM and 0 mM Mg^2+ medium, respectively. Cells were loaded with Fluo4, and signal intensity as recorded by plate reader, was normalized to unstimulated baseline values. […] Quantified results of n=3 mice with 3 technical replicates each. […] Results are quantified of n=3 mice with 3 technical replicates each. (e) Representative CD11a (LFA-1) surface expression on human naïve and EM CD8 T cells, PHA T cell blasts and REP T cells, assessed by flow cytometry. […] Data is presented as quantified results of n=5 healthy donors (f, g, h), n=3 healthy donors with 2 technical replicates each or n=1 healthy donor with 4 technical replicates (j). […] Data is presented as quantified results of n=1 healthy donor with 4 technical replicates. […] Cytotoxicity is reported as total area under the curve of the fluorescence driven by incorporation of cytotoxic green reagent in dead target cells (green area per μm^2). […]

REP T cells = assay: FAK phosphorylation and CD107a degranulation of REP T cells co-incubated with T2 target cells; type: cell-based, human; details: pulsed T2 target cells; 1.2 mM Mg^2+ ± BIRT377 50 μM
Method: FIG. 3: Magnesium regulates LFA-1 mediated T cell activation and cytotoxicity as well BiTE- and CAR T-cell functionality. (a) Glycolytic switch of murine WT and LFA-1^−/− CTLs upon injection of anti-CD3/28 Ab in medium containing 1.2 mM Mg^2+ and 0 mM Mg^2+, presented as quantification of summarized data with n=4 mice. (b) Calcium flux in WT and LFA-1^−/− Jurkat T cells stimulated with anti-CD3 Ab in 1.2 mM and 0 mM Mg^2+ medium, respectively. Cells were loaded with Fluo4, and signal intensity as recorded by plate reader, was normalized to unstimulated baseline values. […] Quantified results of n=3 mice with 3 technical replicates each. (d) Caspase-3 activity in EL4 target cells after co-culture with murine WT and LFA-1^−/− CTLs under the conditions as in (c) for 4 hours, in presence of 10 μg/ml PHA. The effector to target cell ratio was 3:1. Results are quantified of n=3 mice with 3 technical replicates each. (e) Representative CD11a (LFA-1) surface expression on human naïve and EM CD8 T cells, PHA T cell blasts and REP T cells, assessed by flow cytometry. Flow cytometry-based assessment of inactivate LFA-1 with bent conformation (f), extended conformation with β2 leg extension (g), LFA-1 with open head-piece (h), phosphorylation of FAK, expression of degranulation marker CD107a (j) on REP T cells after co-incubation with T2 target cells (pulsed with 10^−8 M 9c peptide) in same condition as in (c). The effector to target cell ratio was 1:1. Data is presented as quantified results of n=5 healthy donors (f, g, h), n=3 healthy donors with 2 technical replicates each or n=1 healthy donor with 4 technical replicates (j). […] Data is presented as quantified results of n=1 healthy donor with 4 technical replicates. […] Cytotoxicity is reported as total area under the curve of the fluorescence driven by incorporation of cytotoxic green reagent in dead target cells (green area per μm^2). […] (p) Abundance of IFNγ in cell culture supernatants corresponding to the conditions depicted in (o) at 24 hours was determined by ELISA (n=8, 3 independent experiments). […]

human PHA T cell blasts [1] = assay: Glycolytic switch of PHA T cell blasts ± BIRT377; type: cell-based; details: ±BIRT377 50 μM
[2] = system: murine WT and LFA-1^−/− CTLs; assay: Degranulation marker CD107a on murine WT and LFA-1−/− CTLs; type: cell-based; details: 8 h anti-CD3/anti-CD28 Ab; 1.2 mM Mg^2+ ± BIRT377 50 μM
human PHA T cell blasts [3] = assay: Degranulation of PHA T cell blasts ± BIRT377; type: cell-based; details: ±BIRT377 50 μM
T2 target cells = type: cell-based, human; details: 45 min; E:T 1:1; 1.2 mM Mg^2+ ± BIRT377 50 μM

Row | Substance | Blinatumomab-mediated cytotoxicity (caspase-3 activity in Ramos target cells) (Ramos target cells) | Degranulation (CD107a) of REP T cells (REP T cells) | Glycolytic switch of PHA T cell blasts (human PHA T cell blasts [1]) | CD107a degranulation of LFA-1^−/− CTLs [2] | CD107a degranulation of WT CTLs [2] | Degranulation of PHA T cell blasts (human PHA T cell blasts [3]) | Target cell killing by REP T cells (caspase-3 activity in T2 target cells) (T2 target cells)
1 | Blinatumomab: CD3/CD19 bispecific antibody engaging T cells to bind and eliminate CD19-positive cells | strongly dependent on availability of Mg^2+ | – | – | – | – | – | –
2 | BIRT377 [reference compound] | – | reduced degranulation | impaired glycolytic switching | unaffected | reduced CTL degranulation | decreased degranulation | reduced
